# US20240158392A1 (Janssen Biotech, Inc., priority 2021, published 2024)
# Target: SIK2 (Homo sapiens, UniProt Q9H0K1)
# Experiment: SIK2 Enzymatic Assay High Version 2 (High ATP)
# Type: biochemical
# Details: enzyme 6 nM, 6 mM ATP and 400 μM HDAC5tide (each 2× final concentration); 30 minutes pre-incubation, 2 hours; ADP-Glo Max luminescence; read-out: SIK2 high ATP IC50 (μM) (Test Example 2)
# Method in brief: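 At room temperature, enzyme (6 nM, 2× final) was preincubated with compound for 30 min, then 6 mM ATP and 400 μM HDAC5tide (both 2× final) were added for 2 h. ADP formed was measured by ADP-Glo Max (2 h reagent, 1 h detection) using luminescence.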
# Chain of SIK2 (Q9H0K1 whole entry, species assumed): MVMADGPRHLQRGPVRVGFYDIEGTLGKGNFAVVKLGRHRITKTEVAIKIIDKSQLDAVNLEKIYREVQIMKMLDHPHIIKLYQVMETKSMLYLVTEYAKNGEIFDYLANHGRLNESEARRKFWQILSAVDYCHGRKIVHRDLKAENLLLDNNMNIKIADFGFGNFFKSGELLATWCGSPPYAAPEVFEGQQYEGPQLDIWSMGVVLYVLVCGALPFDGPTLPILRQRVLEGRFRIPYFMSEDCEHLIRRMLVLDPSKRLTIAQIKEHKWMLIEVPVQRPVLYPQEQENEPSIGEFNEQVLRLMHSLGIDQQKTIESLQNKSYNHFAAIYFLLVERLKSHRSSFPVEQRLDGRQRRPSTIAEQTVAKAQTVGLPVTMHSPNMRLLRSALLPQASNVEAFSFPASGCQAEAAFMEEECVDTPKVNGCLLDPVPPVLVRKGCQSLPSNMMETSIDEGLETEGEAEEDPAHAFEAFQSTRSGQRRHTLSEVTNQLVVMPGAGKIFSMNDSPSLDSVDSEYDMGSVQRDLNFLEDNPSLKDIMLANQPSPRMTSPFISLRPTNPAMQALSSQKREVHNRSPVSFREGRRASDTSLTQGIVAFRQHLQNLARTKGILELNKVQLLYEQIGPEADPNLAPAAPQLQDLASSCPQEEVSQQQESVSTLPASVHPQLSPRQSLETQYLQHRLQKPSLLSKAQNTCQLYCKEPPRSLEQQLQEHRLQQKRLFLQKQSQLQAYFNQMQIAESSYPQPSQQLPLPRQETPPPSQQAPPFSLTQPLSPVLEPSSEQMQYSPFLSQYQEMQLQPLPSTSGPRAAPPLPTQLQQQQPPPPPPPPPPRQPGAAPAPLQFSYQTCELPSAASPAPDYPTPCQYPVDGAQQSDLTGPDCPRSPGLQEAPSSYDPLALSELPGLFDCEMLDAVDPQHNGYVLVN
row,Structure (SMILES),IC50
1,"Cc1cc(-c2ccn3nc(Nc4cc(C)c(=O)n(CC(C)C)n4)cc3c2)c(OCC(C)(C)O)cn1 [Example 282, 6-[[5-[5-(2-hydroxy-2-methyl-propoxy)-2-methyl-4-pyridyl]pyrazolo[1,5-a]pyridin-2-yl]amino]-2-isobutyl-4-methyl-pyridazin-3-one]",0.00608 µM
2,"Cc1cc(-c2ccn3nc(Nc4cc(C)c(=O)n(CCOC(F)F)n4)cc3c2)c(O[C@H]2CC[C@H](O)CC2)cn1 [Example 283, 2-[2-(difluoromethoxy)ethyl]-6-[[5-[5-(4-hydroxycyclohexoxy)-2-methyl-4-pyridyl]pyrazolo[1,5-a]pyridin-2-yl]amino]-4-methyl-pyridazin-3-one]",0.00429 µM
3,"Cc1cc(-c2ccn3nc(Nc4cc(C)c(=O)n(CCOC(F)F)n4)cc3c2)c(OCC(C)(C)O)cn1 [Example 284, 2-[2-(difluoromethoxy)ethyl]-6-[[5-[5-(2-hydroxy-2-methyl-propoxy)-2-methyl-4-pyridyl]pyrazolo[1,5-a]pyridin-2-yl]amino]-4-methyl-pyridazin-3-one]",0.0188 µM
4,"Cc1cc(-c2ccn3nc(Nc4cc(C)nc(N5CCCC5)n4)cc3c2)c(OCC(C)(C)O)cn1 [Example 285, 2-methyl-1-[[6-methyl-4-[2-[(6-methyl-2-pyrrolidin-1-yl-pyrimidin-4-yl)amino]pyrazolo[1,5-a]pyridin-5-yl]-3-pyridyl]oxy]propan-2-ol]",0.0109 µM
5,"Cc1cc(-c2ccn3nc(Nc4cc(C)nc(N5CCOCC5)n4)cc3c2)c(OCC(C)(C)O)cn1 [Example 286, 2-methyl-1-[[6-methyl-4-[2-[(6-methyl-2-morpholino-pyrimidin-4-yl)amino]pyrazolo[1,5-a]pyridin-5-yl]-3-pyridyl]oxy]propan-2-ol]",0.0166 µM
6,"Cc1cc(-c2ccn3nc(Nc4cc(C)nc(N5CCOCC5)n4)cc3c2)c(O[C@H]2CC[C@H](O)CC2)cn1 [Example 288, 4-[[6-methyl-4-[2-[(6-methyl-2-morpholino-pyrimidin-4-yl)amino]pyrazolo[1,5-a]pyridin-5-yl]-3-pyridyl]oxy]cyclohexanol]",0.00696 µM
7,"Cc1cc(-c2ccn3nc(Nc4cnc5cc[nH]c5n4)cc3c2)c(OCC(C)(C)O)cn1 [Example 291, 2-methyl-1-[[6-methyl-4-[2-(5H-pyrrolo[2,3-b]pyrazin-3-ylamino)pyrazolo[1,5-a]pyridin-5-yl]-3-pyridyl]oxy]propan-2-ol]",0.00809 µM
8,"Cc1cc(-c2ccn3nc(Nc4nn(C)c5ncccc45)cc3c2)c(OCC(C)(C)O)cn1 [Example 292, 2-methyl-1-[[6-methyl-4-[2-[(1-methylpyrazolo[3,4-b]pyridin-3-yl)amino]pyrazolo[1,5-a]pyridin-5-yl]-3-pyridyl]oxy]propan-2-ol]",0.0187 µM
9,"Cc1cc(-c2ccn3nc(Nc4cc(C)nc(N5CCOCC5)n4)cc3c2)c(OC[C@H]2OCC[C@@H]2O)cn1 [Example 294, (2R,3S)-2-[[6-methyl-4-[2-[(6-methyl-2-morpholino-pyrimidin-4-yl)amino]pyrazolo[1,5-a]pyridin-5-yl]-3-pyridyl]oxymethyl]tetrahydrofuran-3-ol]",0.0138 µM
10,"Cc1cc(-c2ccn3nc(Nc4cnc(C(F)F)cn4)cc3c2)c(OC[C@H]2OCC[C@@H]2O)cn1 [Example 295, (2R,3S)-2-[[4-[2-[[5-(difluoromethyl)pyrazin-2-yl]amino]pyrazolo[1,5-a]pyridin-5-yl]-6-methyl-3-pyridyl]oxymethyl]tetrahydrofuran-3-ol]",0.0176 µM
11,"Cc1cc(-c2ccn3nc(Nc4cc(C)c(=O)n(CCOC(F)F)n4)cc3c2)c(OC[C@H]2OCC[C@@H]2O)cn1 [Example 296, 2-[2-(difluoromethoxy)ethyl]-6-[[5-[5-[[(2R,3S)-3-hydroxytetrahydrofuran-2-yl]methoxy]-2-methyl-4-pyridyl]pyrazolo[1,5-a]pyridin-2-yl]amino]-4-methyl-pyridazin-3-one]",0.00698 µM
12,"Cc1cc(-c2ccn3nc(Nc4cncc(C)n4)cc3c2)c(OC[C@H]2OCC[C@@H]2O)cn1 [Example 297, (2R,3S)-2-[[6-methyl-4-[2-[(6-methylpyrazin-2-yl)amino]pyrazolo[1,5-a]pyridin-5-yl]-3-pyridyl]oxymethyl]tetrahydrofuran-3-ol]",0.00781 µM
13,"Cc1cc(-c2ccn3nc(Nc4cc(C)nc(C(C)(C)C)n4)cc3c2)c(OC[C@H]2OCC[C@@H]2O)cn1 [Example 298, (2R,3S)-2-[[4-[2-[(2-tert-butyl-6-methyl-pyrimidin-4-yl)amino]pyrazolo[1,5-a]pyridin-5-yl]-6-methyl-3-pyridyl]oxymethyl]tetrahydrofuran-3-ol]",0.00667 µM
14,"Cc1cc(-c2ccn3nc(Nc4nn(C)c5ccccc45)cc3c2)c(OC[C@H]2OCC[C@@H]2O)cn1 [Example 299, (2R,3S)-2-[[6-methyl-4-[2-[(1-methylindazol-3-yl)amino]pyrazolo[1,5-a]pyridin-5-yl]-3-pyridyl]oxymethyl]tetrahydrofuran-3-ol]",0.00675 µM
15,"CC#Cc1cc(-c2ccn3nc(Nc4cnn(C)c4)cc3c2)c(OC[C@H]2OCC[C@@H]2O)cn1 [Example 300, (2R,3S)-2-[[4-[2-[(1-methylpyrazol-4-yl)amino]pyrazolo[1,5-a]pyridin-5-yl]-6-prop-1-ynyl-3-pyridyl]oxymethyl]tetrahydrofuran-3-ol]",0.00639 µM
16,"CC#Cc1cc(-c2ccn3nc(Nc4ccn(C)n4)cc3c2)c(OC[C@H]2OCC[C@@H]2O)cn1 [Example 301, (2R,3S)-2-[[4-[2-[(1-methylpyrazol-3-yl)amino]pyrazolo[1,5-a]pyridin-5-yl]-6-prop-1-ynyl-3-pyridyl]oxymethyl]tetrahydrofuran-3-ol]",0.00773 µM
17,"Cc1cc(-c2ccn3nc(Nc4cc(C)nc(C)n4)cc3c2)c(OCC2(C(N)=O)CC2)cn1 [Example 313, 1-[[4-[2-[(2,6-dimethylpyrimidin-4-yl)amino]pyrazolo[1,5-a]pyridin-5-yl]-6-methyl-3-pyridyl]oxymethyl]cyclopropanecarboxamide]",0.0138 µM
18,"Cc1cc(-c2ccn3nc(Nc4cc(C)nc(C)n4)cc3c2)c(O[C@H]2C[C@@H](N)C2)cn1 [Example 314, 5-[5-(3-aminocyclobutoxy)-2-methyl-4-pyridyl]-N-(2,6-dimethylpyrimidin-4-yl)pyrazolo[1,5-a]pyridin-2-amine]",0.0129 µM

# Now those with a lower IC50, led by results:
row,IC50,Structure (SMILES)
1,0.00144 µM,"Cc1cc(-c2ccn3nc(Nc4cc(C)nc(N5CCCC5)n4)cc3c2)c(O[C@H]2CC[C@H](O)CC2)cn1 [Example 287, 4-[[6-methyl-4-[2-[(6-methyl-2-pyrrolidin-1-yl-pyrimidin-4-yl)amino]pyrazolo[1,5-a]pyridin-5-yl]-3-pyridyl]oxy]cyclohexanol]"
2,0.00114 µM,"Cc1cc(-c2ccn3nc(Nc4cnc5cc[nH]c5n4)cc3c2)c(O[C@H]2CC[C@H](O)CC2)cn1 [Example 289, 4-[[6-methyl-4-[2-(5H-pyrrolo[2,3-b]pyrazin-3-ylamino)pyrazolo[1,5-a]pyridin-5-yl]-3-pyridyl]oxy]cyclohexanol]"
3,< 0.000847 µM,"CCn1nc(Nc2cc3cc(-c4cc(C)ncc4OC[C@H]4OCC[C@@H]4O)ccn3n2)cc(C)c1=O [Example 293, 2-ethyl-6-[[5-[5-[[(2R,3S)-3-hydroxytetrahydrofuran-2-yl]methoxy]-2-methyl-4-pyridyl]pyrazolo[1,5-a]pyridin-2-yl]amino]-4-methyl-pyridazin-3-one]"
4,0.000975 µM,"CC#Cc1cc(-c2ccn3nc(Nc4cc(C)nc(C)n4)cc3c2)c(OC[C@]23CN[C@H](CO2)C3)cn1 [Example 302, N-(2,6-dimethylpyrimidin-4-yl)-5-[5-[[(1S,4S)-5-oxa-2-azabicyclo[2.2.1]heptan-4-yl]methoxy]-2-prop-1-ynyl-4-pyridyl]pyrazolo[1,5-a]pyridin-2-amine]"
5,0.000971 µM,"Cc1cc(Nc2cc3cc(-c4cc(Cl)ncc4OC[C@]45CN[C@H](CO4)C5)ccn3n2)nc(C)n1 [Example 303, 5-[2-chloro-5-[[(1S,4S)-5-oxa-2-azabicyclo[2.2.1]heptan-4-yl]methoxy]-4-pyridyl]-N-(2,6-dimethylpyrimidin-4-yl)pyrazolo[1,5-a]pyridin-2-amine]"
6,0.00117 µM,"Cc1cc(-c2ccn3nc(Nc4cc(C)c(=O)n(C)n4)cc3c2)c(O[C@H]2CC[C@@H](S(C)(=O)=O)CC2)cn1 [Example 305, 2,4-dimethyl-6-((5-(2-methyl-5-(((1s,4s)-4-(methylsulfonyl)cyclohexyl)oxy)pyridin-4-yl)pyrazolo[1,5-a]pyridin-2-yl)amino)pyridazin-3(2H)-one]"
7,0.00132 µM,"Cc1cc(-c2ccn3nc(Nc4ccc5cc[nH]c5n4)cc3c2)c(OCC(C)(C)C#N)cn1 [Example 307, 2,2-dimethyl-3-[[6-methyl-4-[2-(1H-pyrrolo[2,3-b]pyridin-6-ylamino)pyrazolo[1,5-a]pyridin-5-yl]-3-pyridyl]oxy]propanenitrile]"
8,0.00171 µM,"Cc1cc(-c2ccn3nc(Nc4ccc5nccn5n4)cc3c2)c(OCC(C)(C)C#N)cn1 [Example 308, 3-[[4-[2-(imidazo[1,2-b]pyridazin-6-ylamino)pyrazolo[1,5-a]pyridin-5-yl]-6-methyl-3-pyridyl]oxy]-2,2-dimethyl-propanenitrile]"
9,< 0.000847 µM,"CNc1nc(C)cc(Nc2cc3cc(-c4cc(C)ncc4OCC(C)(C)C#N)ccn3n2)n1 [Example 309, 2,2-dimethyl-3-[[6-methyl-4-[2-[[6-methyl-2-(methylamino)pyrimidin-4-yl]amino]pyrazolo[1,5-a]pyridin-5-yl]-3-pyridyl]oxy]propanenitrile]"
10,< 0.000847 µM,"Cc1cc(-c2ccn3nc(Nc4cc(C)nc(C5CC5)n4)cc3c2)c(OCC(C)(C)C#N)cn1 [Example 310, 3-[[4-[2-[(2-cyclopropyl-6-methyl-pyrimidin-4-yl)amino]pyrazolo[1,5-a]pyridin-5-yl]-6-methyl-3-pyridyl]oxy]-2,2-dimethyl-propanenitrile]"
11,0.00406 µM,"Cc1cc(-c2ccn3nc(Nc4cc(C)nc(C)n4)cc3c2)c(OCCC(C)(C)C#N)cn1 [Example 315, 4-[[4-[2-[(2,6-dimethylpyrimidin-4-yl)amino]pyrazolo[1,5-a]pyridin-5-yl]-6-methyl-3-pyridyl]oxy]-2,2-dimethyl-butanenitrile]"
